The source of these data is patent publication US6160004A, “C-10 carbon-substituted artemisinin-like trioxane compounds having antimalarial, antiproliferative and antitumor activities” (priority 1998, dated 2000).

Converted amounts (≈) assume the structure as drawn. Read-outs that look alike come from different tables or passages of the source.

The test system of series [1] is chloroquine-sensitive P. falciparum (NF54). Description: In vitro antimalarial activity ([3H]hypoxanthine incorporation). The format is cell-based.
The next series concerns malaria. Description: In vivo antimalarial activity. Also on record: species or system rodents.
Series [2] has as its system murine keratinocyte cell line PE. Description: Growth inhibition of murine keratinocytes (MTT). It is filed as cell-based, murine (SENCAR mice). Conditions: 100 nanomolar. As for the experimental part: To determine the inhibitory effect of the compositions of the present invention on cell proliferation, screening assays were performed on a murine keratinocyte cell line PE. Cell line PE was chosen for its particular sensitivity to the induction of ornithine decarboxylase (ODC) activity by the extensively characterized tumor promoter TPA. […] PE cell culture medium consisted of Eagle's minimal essential medium without calcium chloride (Whittaker Bioproducts, Walkersville, Mass.) supplemented with 8% chelexed fetal calf serum and 1% antibiotic-antimycotic (Gibco BRL) and the addition of CaCl2 to 0.05 mM Ca^++.
MTT [3-(4,5-dimethylthiazol-2-yl)-2,5-diphenyltetraxolium bromide] was purchased from Sigma Chemical Co. (St. Louis, Mo.), and TPA was supplied by L.C. Services (Woburn, Mass.). L-[^14 C]omithine (56 μCi/mol) was from Amersham/Searle Corp. (Arlington Heights, Ill.). Chemical solvents used in all assays of biological activity were of the highest grade commercially available.
Growth Inhibition. Growth curves, shown in FIGS. 1-5, for PE cells treated with calcitriol and the C-10 carbon-substituted dimers 38, 39, 43, 44, 45, 47 and 48, and monomer 27 generated by assay for the reduction of the tetrazolium-based compound MTT, see Charmichael, et al., Cancer Res., 47:936-942 (1987). […] PE cells were seeded at a density of 5,000 cells/well in 50 μL of medium into 96-well microtiter plates. Twelve hours later, the medium was removed, and cells were treated with 100 μL of fresh medium into which the appropriate amount of calcitriol or analog dissolved in dimethyl sulfoxide (DMSO) had been added, with the concentration of DMSO held constant at 0.1%. […] At 24-hour intervals following the initial treatment of the cells with compounds, 0.1 mg (50 μL of a 2 mg/mL solution) of MTT was added to each well. After 4 hours, the MTT was removed and DMSO added to dissolve the blue formazan dye. Using a microtiter plate reader, the A505 was then determined and cell number calculated from blank-subtracted absorbance values.

Series [3] has as its system Ehrlich ascites tumor (EAT) cells. Particulars: cited from earlier work.
For a further series, the system named is P. berghei. Conditions: cited from earlier work.
Series [4] in a line: Water solubility at pH 7.4. The format is physicochemical. Conditions: pH 7.4, water. As for the experimental part:
Often, solubility in water is a desirable feature of a new drug candidate. Since organic compounds bearing one or more carboxylic acid groups or phenolic groups are usually water soluble at physiological pH, we have prepared a series of 10-carbon-substituted trioxane carboxylic acids via alkene oxidation and ester saponification. Also, bisphenol (34) was prepared by hydrolysis of the corresponding bis-silyl ether.

A further series in a line: Stability (hydrolysis). The format is physicochemical.
Series [5] in a line: In vivo acute toxicity testing. Particulars: preliminary.
The mark [6] stands for this setting: Plasmodium falciparum, chloroquine-sensitive P. falciparum NF54, in vitro.
[7] abbreviates: sc; read-out: ED50 subcutaneous.
Where [8] appears, read: sc; read-out: ED90 subcutaneous.

For the compound `CO[C@H]1O[C@@H]2O[C@@]3(C)CC[C@H]4[C@H](C)CC[C@@H]([C@H]1C)[C@@]24OO3` [Artemether, reference compound], in series [1] (P. falciparum NF54), the “in vitro antimalarial potency relative to artemisinin” value is listed as “more potent than artemisinin”. As usually defined, the ED50 is the dose that gives a 50% effect, or the effect in half of the subjects. `CCN(CC)CCCC(C)Nc1ccnc2cc(Cl)ccc12` (stereo not drawn) [Chloroquine, reference compound]: the ED50 in the series with malaria (sc, read-out: ED50 subcutaneous) came to 1.8 mg/kg. Moreover, the ED90 in the series on malaria (sc, read-out: ED90 subcutaneous) turned out to be 3.1 mg/kg.

For the compound `COc1cc(OC)c(C2OC3OC4(C)CCC5C(C)CCC(C2C)C35OO4)cc1C1OC2OC3(C)CCC4C(C)CCC(C1C)C24OO3` (stereo not drawn) [Dimer 43], the “antiproliferative activity relative to calcitriol” value in series [2] is reported as “at least as antiproliferative as calcitriol”.

Regarding `CC1CCC2C(C)C(C#Cc3cccc(C#CC4OC5OC6(C)CCC7C(C)CCC(C4C)C57OO6)c3)OC3OC4(C)CCC1C32OO4` (stereo not drawn) [Dimer 44], the “antiproliferative activity relative to calcitriol” value in series [2] is “at least as antiproliferative as calcitriol”. On the same count and under the same terms, the value for `CC1CCC2C(C)C(C#Cc3ccc(C#CC4OC5OC6(C)CCC7C(C)CCC(C4C)C57OO6)cc3)OC3OC4(C)CCC1C32OO4` (stereo not drawn) [Dimer 45, C-10 p-Diethynylbenzene 10-deoxoartemisinin Dimer] was “at least as antiproliferative as calcitriol”; that for `CC1CCC2C(C)C(c3ccc(C4OC5OC6(C)CCC7C(C)CCC(C4C)C57OO6)o3)OC3OC4(C)CCC1C32OO4` (stereo not drawn) [Dimer 47] was “at least as antiproliferative as calcitriol”. The same measure, in the same setting: the value for `CC1CCC2C(C)C(c3ccc(C(c4ccccc4)c4ccc(C5OC6OC7(C)CCC8C(C)CCC(C5C)C68OO7)n4C)n3C)OC3OC4(C)CCC1C32OO4` (stereo not drawn) [Dimer 48] was “at least as antiproliferative as calcitriol”. For orientation: IC50 means the concentration needed to halve the response being measured. For `C[C@@H]1CC[C@H]2[C@@H](C)C(OC3O[C@@H]4O[C@@]5(C)CC[C@H]6[C@H](C)CC[C@@H]([C@H]3C)[C@@]46OO5)O[C@@H]3O[C@@]4(C)CC[C@@H]1[C@]32OO4` (stereo partly drawn) [II-7], the 50% inhibitory concentration (IC50) in series [3] (MTT, growth inhibition) is 1400 nM. Further, in series [3], the “cytotoxicity relative to artemisinin (times more cytotoxic)” value is recorded as “approximately twenty-two” and the “cytotoxicity relative to dihydroartemisinin (times more cytotoxic)” value is “sixty”. Further, the SD90 in the series on P. berghei (P. berghei-infected mice, parasitemia 90 percent suppressed) is 10 mg/kg. Also, in the series with P. berghei (P. berghei-infected mice), the “in vivo potency relative to artemisinin” value is “less potent than artemisinin”.

`COc1ccc([C@@H]2O[C@@H]3O[C@@]4(C)CC[C@H]5[C@H](C)CC[C@@H]([C@H]2C)[C@@]35OO4)c(OC)c1` [Monomer 13]: in series [1] (survey data (preliminary), P. falciparum NF54), half-maximal inhibition (IC50) was put at 8.9 nM. Consider `COc1ccc(C2OC3OC4(C)CCC5C(C)CCC(C2C)C35OO4)c(OC)c1` (stereo not drawn) [Monomer 13a, 10α-(1',3'-Dimethoxyphenyl)deoxoartemisininin], for which the “in vitro antimalarial potency relative to artemisinin” value in series [1] (P. falciparum NF54) is “more potent than artemisinin”. Moreover, 4.2 nM corresponded to half-maximal inhibition in series [1] (setting [6]) (IC50). With `C=CCOc1ccc([C@@H]2O[C@@H]3O[C@@]4(C)CC[C@H]5[C@H](C)CC[C@@H]([C@H]2C)[C@@]35OO4)c(OCC=C)c1` [Monomer 13b], half-maximal inhibition in series [1] (setting [6]) (IC50) required 6.6 nM. In general, solubility refers to how much of the substance goes into solution per volume. Take `C[C@H]1[C@H](c2ccc(O)cc2O)O[C@@H]2O[C@@]3(C)CC[C@H]4[C@H](C)CC[C@@H]1[C@@]24OO3` [Monomer 13d]: the solubility in series [4] was less than 3 mM. Regarding `COc1cc(OC)c([C@@H]2O[C@@H]3O[C@@]4(C)CC[C@H]5[C@H](C)CC[C@@H]([C@H]2C)[C@@]35OO4)c(OC)c1` [Monomer 14], the IC50 in series [1] (setting [6]) stood at 7.8 nM. Compound `COc1ccc2cc(C3OC4OC5(C)CCC6C(C)CCC(C3C)C46OO5)c(OC)cc2c1` (stereo not drawn) [Monomer 15, 10α-(2',7'-dimethoxynaphth-3'-yl)deoxoartemisinin] yielded an IC50 in series [1] (setting [6]) of 9 nM.

For `CC1CCC2C(C)C(c3cccn3C)OC3OC4(C)CCC1C32OO4` (stereo not drawn) [Monomer 16a, 10α-(N-methylpyrrol-2'-yl)deoxoartemisinin], the “in vitro antimalarial potency relative to artemisinin” value in series [1] (P. falciparum NF54) is listed as “more potent than artemisinin”. Further, the IC50 in series [1] (setting [6]) was 4.6 nM. In addition, the ED50 was 4.5 mg/kg with malaria (po; read-out: ED50 oral) and 0.7 mg/kg in the series with malaria (setting [7]). Besides, the ED90 in the series with malaria (po; read-out: ED90 oral) is 8.5 mg/kg; in the series with malaria (setting [8]) it was 1.2 mg/kg. Besides, the stability result in the series “Stability (hydrolysis)” is “Hydrolytically stable”. The compound `C[C@H]1[C@H](c2cccn2Cc2ccccc2)O[C@@H]2O[C@@]3(C)CC[C@H]4[C@H](C)CC[C@@H]1[C@@]24OO3` [Monomer 16b] came in with a 50% inhibitory concentration (IC50) in series [1] (setting [6]) of 16 nM. Same read-out and setting: the value for `CCOC(=O)Cn1cccc1[C@@H]1O[C@@H]2O[C@@]3(C)CC[C@H]4[C@H](C)CC[C@@H]([C@H]1C)[C@@]24OO3` [Monomer 16d, 10α-(1'-(Ethoxycarbonylmethyl)pyrrol-2'-yl)-10-deoxoartemisinin] was 9.1 nM. `CC1CCC2C(C)C(c3cccn3CC(=O)O)OC3OC4(C)CCC1C32OO4` (stereo not drawn) [Monomer 16e]: the concentration in solution in series [4] (solubility) was 10 mM (≈ 3910 µg/mL).

`CC1CCC2C(C)C(c3ccco3)OC3OC4(C)CCC1C32OO4` (stereo not drawn) [Monomer 17a, 10α-(2'-Furyl)-10-deoxoartemisinin]: in series [1] (P. falciparum NF54), the “in vitro antimalarial potency relative to artemisinin” value is listed as “more potent than artemisinin”. In series [1] (setting [6]), this compound registered a half-inhibitory concentration (IC50) of 1.4 nM. Also, the figures for the median effective dose (ED50) with malaria (po; read-out: ED50 oral) and with malaria (setting [7]) were 9.5 mg/kg and 1.2 mg/kg, respectively. Further, the ED90 with malaria (po; read-out: ED90 oral) was determined as 24 mg/kg; with malaria (setting [8]) it was 2 mg/kg. Further, the stability entry in the series “Stability (hydrolysis)” is given as “Hydrolytically stable”. Also, the “in vivo acute toxicity testing” value in series [5] is listed as “relative safety”. With `Cc1ccc([C@@H]2O[C@@H]3O[C@@]4(C)CC[C@H]5[C@H](C)CC[C@@H]([C@H]2C)[C@@]35OO4)o1` [Monomer 17b], the IC50 in series [1] (setting [6]) was determined as 5.2 nM. Moreover, the ED50 with malaria (po; read-out: ED50 oral) came to 15.5 mg/kg; in the series on malaria (setting [7]), 0.9 mg/kg. Besides, the ED90 in the series with malaria (po; read-out: ED90 oral) turned out to be 43 mg/kg; in the series with malaria (setting [8]), 2 mg/kg. Further, in the series “Stability (hydrolysis)”, the stability entry is on record as “Hydrolytically stable”. In series [5], the “in vivo acute toxicity testing” value was “relative safety”.

`CCc1ccc([C@@H]2O[C@@H]3O[C@@]4(C)CC[C@H]5[C@H](C)CC[C@@H]([C@H]2C)[C@@]35OO4)o1` [Monomer 17c]: the concentration for half-maximal inhibition (IC50) in series [1] (setting [6]) was found to be 8.6 nM. `C[C@H]1[C@H](c2ccc(C(C)(C)C)o2)O[C@@H]2O[C@@]3(C)CC[C@H]4[C@H](C)CC[C@@H]1[C@@]24OO3` [Monomer 17d] came in with a half-inhibitory concentration (IC50) in series [1] (setting [6]) of 10 nM. The same measure, in the same setting: the value for `C[C@H]1[C@H](c2cccs2)O[C@@H]2O[C@@]3(C)CC[C@H]4[C@H](C)CC[C@@H]1[C@@]24OO3` [Monomer 18] was 5.1 nM. On the same count and under the same terms, the value for `CC1CCC2C(C)C(c3cn(C)c4ccccc34)OC3OC4(C)CCC1C32OO4` (stereo not drawn) [Monomer 19] was 4 nM.

`CC1CCC2C(C)C(C(=O)O)OC3OC4(C)CCC1C32OO4` (stereo not drawn) [Monomer 33] yielded a solubility in series [4] of 30 mM (≈ 9370 µg/mL). Take `CC1=CO[C@@H]2O[C@@]3(C)CC[C@H]4[C@H](C)CC[C@@H]1[C@@]24OO3` [olefinic compound III]: the “activity against P. berghei-infected mice” value in the series with P. berghei was “inactive”.
